# Test results as given in patent US20150335637A1, “COMPOSITIONS AND METHODS FOR TREATING CUTANEOUS T CELL LYMPHOMA” (THE TRUSTEES OF THE UNIVERSITY OF PENNSYLVANIA, priority 2013, published 2015).
# Test system: cutaneous T-cell lymphoma (CTCL) lesions
# Assay: Phase I open label trial of resiquimod gel, clinical response of skin lesions
# Format: in vivo, human
# Description: The final trial design calls for a total of 16-20 patients, with the first half cohort treated topically with 0.06% gel and the second half cohort treated topically with 0.03% gel.
# According to the study design, treatment of only four to five target lesions is permitted for eight weeks; followed by four weeks of rest and another eight weeks of therapy. Final evaluation is conducted after four weeks off of therapy.
smiles,measurement,setting,value
"CCOCc1nc2c(N)nc3ccccc3c2n1CC(C)(C)O [resiquimod, 4-amino-α,α-dimethyl-2-ethoxymethyl-1H-imidazo[4,5-c]quinolin-1-ethanol]",skin lesions of one patient (FIG. 1),"patient refractory to previous treatments, before application vs end of week 8",clears the treated lesions and induces resolution of distant lesions
same,clinical response rates for treated and untreated lesions,refractory early stage CTCL patients,"high clinical response rates of both treated as well as distant, non-treated lesions"
